The nature of series [1]: Drug level in pH 9 borate buffer treated with camptothecin-lysine at 1 mM at 37 degC by RP-HPLC analysis. Format: physicochemical. As to conditions: pH 9, 1000 µM; call rule not given here.
The nature of series [2]: Drug level in pH 7.4 PBS treated with camptothecin-lysine at 1 mM at 37 degC after 3 days by RP-HPLC analysis. Format: physicochemical. To be noted: buffer, pH 7.4, 72 h, 1000 µM.
The nature of series [3]: Drug level in pH 7.4 PBS treated with camptothecin-lysine nanotube at 37 degC after 1 week by RP-HPLC analysis. It is filed as physicochemical. To be noted: buffer, pH 7.4, 168 h.
Series [4] relates to A549. Kind of series: Cytotoxicity against human A549 cells assessed as cell viability after 96 hrs by MTT assay. It is filed as functional, cell-based. To be noted: A549, 96 h. For orientation: Tetrazolium assays rely on reduction of a dye to a coloured formazan, in cell work by metabolically active cells.
Series [5] is described as follows: Critical aggregation concentration of the compound in water by Nile Red dye based luminescence spectrometric method. To be noted: buffer. Format: ADME.
Series [6] in a line: Induction of self assembly in pH 7.4 PBS assessed as diameter of nanotube at 10 mM after 24 hrs by transmission electron microscopy. It is filed as physicochemical. As to conditions: buffer, pH 7.4, 24 h, 10000 µM.
Series [7] is described as follows: Induction of self assembly in pH 7.4 PBS assessed as diameter of nanotube at 1 mM after 72 hrs by transmission electron microscopy. It is filed as physicochemical. As to conditions: buffer, pH 7.4, 72 h, 1000 µM.
Series [8] in a line: Drug metabolism in pH 7.4 PBS assessed as remaining parent compound level at 1 mM at 37 degC after 3 days by RP-HPLC analysis. It is filed as physicochemical. As to conditions: read-out: Stability.
The nature of series [9]: Solubility of the compound in water. It is filed as physicochemical.
Series [10] in a line: Induction of self assembly in water at pH 7 assessed as diameter of nanotube at 1 mM after 72 hrs by transmission electron microscopy. Format: physicochemical. As to conditions: buffer, pH 7, 72 h, 1000 µM.
Series [11] in a line: Induction of self assembly in pH 7.4 PBS assessed as thickness of nanotube walls at 1 mM after 72 hrs by transmission electron microscopy. Format: physicochemical. As to conditions: buffer, pH 7.4, 72 h, 1000 µM.
Series [12] can be described thus: Critical aggregation concentration of the compound in pH 7.4 PBS by Nile Red dye based luminescence spectrometric method. Format: ADME. To be noted: buffer.
Series [13] can be described thus: Induction of self assembly in pH 7.4 PBS assessed as zeta potential of nanotube at 1 mM after 1 day. As to conditions: buffer, pH 7.4, 24 h, 1000 µM. Format: physicochemical.
A short description of series [14]: Induction of non specific self aggregation in pH 7.4 PBS at 250 uM. Format: physicochemical. As to conditions: buffer, pH 7.4, 250 µM.
Series [15] is described as follows: Induction of J-type self aggregation in pH 7.4 PBS at 250 uM after 3 days by UV-Vis spectrometry. Format: physicochemical. To be noted: buffer, pH 7.4, 72 h.
The nature of series [16]: Induction of self assembly in pH 7.4 PBS assessed as beta-sheet interaction within assembly at 20 mM lyophilized for 3 days followed by redissolved in D2O by fourier transform infrared spectroscopic method. Format: physicochemical. As to conditions: buffer, pH 7.4, 72 h, 20000 µM.
Series [17] relates to A549. Kind of series: Drug uptake in human A549 cells at 10 mM after 8 hrs by flow cytometric method. As to conditions: a549, 8 h, 10000 µM. It is filed as ADME, cell-based. (A flow cytometer gives signals particle by particle.)
A further series deals with NCI-H23. Kind of series: Cytotoxicity against human NCI-H23 cells assessed as cell viability after 96 hrs by MTT assay. It is filed as functional, cell-based. To be noted: NCI-H23, 96 h.
A further series relates to NCI-H460. Briefly: Cytotoxicity against human NCI-H460 cells assessed as cell viability after 96 hrs by MTT assay. To be noted: NCI-H460, 96 h. Format: functional, cell-based.
A short description of series [18]: Solubility of the compound in pH 7.4 PBS. Format: physicochemical.
Series [19] in a line: Drug level in pH 6 PBS treated with camptothecin-lysine at 0.1 mM at 37 degC after 15 hrs by RP-HPLC analysis. It is filed as physicochemical. To be noted: buffer, pH 6, 15 h, 100 µM.
Series [20] can be described thus: Drug level in pH 7.4 PBS treated with camptothecin-lysine at 0.1 mM at 37 degC after 15 hrs by RP-HPLC analysis. Format: physicochemical. As to conditions: buffer, pH 7.4, 15 h, 100 µM.
Series [21] deals with A549. Briefly: Drug uptake in human A549 cells at 10 mM after 12 to 24 hrs by flow cytometric method. Format: ADME, cell-based. To be noted: a549, 10000 µM.

≈ marks a conversion by molar mass, not a printed value. Bounds are passed on as bounds.

As to `CC[C@@](O)(C(=O)O)c1cc2n(c(=O)c1CO)Cc1cc3ccccc3nc1-2`, the Drug metabolism entry in [1], in series [2] and in series [3] was “metabolite_detected” in each case.
Usually IC50 stands for the concentration that inhibits the measured activity by half. One may read the solubility as the concentration that dissolves in the medium under given conditions. Read a high solubility as much dissolved substance. In the case of `CC[C@@]1(OC(=O)CCC(=O)NCCCC[C@H](N)C(N)=O)C(=O)OCc2c1cc1n(c2=O)Cc2cc3ccccc3nc2-1`, the IC50 stood at 1120 nM in the series on A549 [4], 120 nM in the series on NCI-H23 and 430 nM with NCI-H460. For the same molecule, the CAC was found to be 200 µM in series [5] and 160 µM in [12]. Further, the Activity is under 500 nm in series [6]; 70 nm in series [7]; 40 nm in series [10]; 7.5 nm in [11]; 19.7 mV in series [13]; “Active” in series [14]. The figures for the Activity entry in series [15] and in series [16] were “Active” and “Not Active”, respectively. Besides, the remaining at 72 h, 1000 µM in series [8] was 39%. The solubility in [9] was 12100 µg/mL (≈ 21 mM); in series [18], 5140 µg/mL (≈ 8.93 mM). The Drug uptake entry in the series on A549 [17] is reported as “Active”.
Take `CC[C@@]1(O)C(=O)OCc2c1cc1n(c2=O)Cc2cc3ccccc3nc2-1` [CAMPTOTHECIN]: the IC50 in the series on A549 [4] is 350 nM; in the series with NCI-H23, 70 nM; in the series with NCI-H460 it was 190 nM. Moreover, the Drug metabolism result in [2], in [3], in [19] and in series [20] was “metabolite_detected” each time. The molecule also came in with a solubility in series [9] of 3 µg/mL (≈ 0.00861 mM). The Drug uptake entry in the series with A549 [21] and with A549 [17] was “Active” in each case.

Values taken from ChEMBL document CHEMBL3797142, “The self-assembly of a camptothecin-lysine nanotube” (Bioorg Med Chem Lett, 2016).
